Data as given in US20090172831A1, “Methods for the production of plants resistant to HPPD herbicides” (Syngenta Limited, priority 2000, published 2009).
“And” between values parts separate entries of the source, which are not always exact repeats. Identical values can stand only once. Like-named read-outs stand apart in the source and are kept apart here.

Legend:
[1] = target: T1, Arabidopsis HPPD (Arabidopsis thaliana, UniProt P93836); experiment: Dissociation of enzyme/inhibitor complexes by exchange with 14C-labelled inhibitor (koff; Kd = koff/kon); assay type: binding
T1 construct: made in house; host or cells: E. coli BL21 (DE3) codon+ RP
T1 sequence (P93836 1-445): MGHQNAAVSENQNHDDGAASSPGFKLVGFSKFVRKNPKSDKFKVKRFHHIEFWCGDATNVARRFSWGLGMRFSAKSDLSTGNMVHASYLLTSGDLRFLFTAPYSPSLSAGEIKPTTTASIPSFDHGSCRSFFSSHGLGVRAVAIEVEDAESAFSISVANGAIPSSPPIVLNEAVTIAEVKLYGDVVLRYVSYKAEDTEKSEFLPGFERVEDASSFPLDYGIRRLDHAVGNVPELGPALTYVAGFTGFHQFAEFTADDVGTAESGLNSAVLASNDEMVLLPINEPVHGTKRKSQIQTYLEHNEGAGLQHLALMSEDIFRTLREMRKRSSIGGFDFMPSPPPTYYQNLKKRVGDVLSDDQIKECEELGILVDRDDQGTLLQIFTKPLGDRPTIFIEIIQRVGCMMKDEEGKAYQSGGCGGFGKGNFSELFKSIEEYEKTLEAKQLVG
Method: It will be appreciated that many suitable methods known in the art for determining such low koff values are suitable for working the current invention. These include measuring rates of exchange of radio or otherwise labelled inhibitors either with or away from the enzyme inhibitor complex. For example enzyme inhibitor complexes can readily be prepared by incubating HPPD preparations with labelled or unlabelled inhibitor and then, after suitable periods, optionally rapidly separating the thus formed enzyme inhibitor complex from excess inhibitor by any suitable method such as ultrafiltration, binding to filters or exchange down a gel filtration column. Exchange reactions with the, thus prepared enzyme inhibitor complex is then initiated by addition of, as appropriate, excess labelled or unlabelled inhibitor. […] Many methods such as radiometric, fluorimetric, NMR, fluorescence depolarisation, EPR, Mossbauer, UV/VIS spectrophotometry etc. or phonon resonance can, in principle, be used to monitor the enzyme/ligand exchange reactions and, particularly in this case where the enzyme contains an iron atom at the ligand binding site. Optionally, the monitoring method may be continuous (as, for example, with scintillation proximity/bead-based methods) or, discontinuous, based upon collection of data at various timepoints wherein samples are removed and the bound and unbound label components rapidly separated and quantitated.
(§1) Values of koff can suitably be calculated by computer fitting based upon is numerical integration of the exchange data along with information on the active-site concentration of HPPD and upon kon values obtained as described below. […] In any event, koff values are always here calculated from the rate of the major slow exchange reaction.
^14C mesotrione is of specific activity 1.12 GBq/mmol. […] Following this initial binding reaction, exchange reactions are initiated by addition of cold mesotrione to a final concentration of 60 μM and 200 μl aliquots removed at various times to rapid chromatography down a NAP5 gel filtration column equilibrated in 50 mM BTP at pH 7 containing 0.1 M KCl, separation into fractions containing protein-bound or free radiolabel and liquid scintillation counting.
Nevertheless, here, for practical purposes, koff values are always here calculated from the rate of the major slow exchange reaction.
Not all test inhibitors are readily available in a radiolabelled form.

[2] = target: Wheat HPPD (Triticum aestivum, UniProt A0A3B6NLC6); experiment: as above; assay type: binding
Wheat HPPD, sequence (A0A3B6NLC6 entry or part of it): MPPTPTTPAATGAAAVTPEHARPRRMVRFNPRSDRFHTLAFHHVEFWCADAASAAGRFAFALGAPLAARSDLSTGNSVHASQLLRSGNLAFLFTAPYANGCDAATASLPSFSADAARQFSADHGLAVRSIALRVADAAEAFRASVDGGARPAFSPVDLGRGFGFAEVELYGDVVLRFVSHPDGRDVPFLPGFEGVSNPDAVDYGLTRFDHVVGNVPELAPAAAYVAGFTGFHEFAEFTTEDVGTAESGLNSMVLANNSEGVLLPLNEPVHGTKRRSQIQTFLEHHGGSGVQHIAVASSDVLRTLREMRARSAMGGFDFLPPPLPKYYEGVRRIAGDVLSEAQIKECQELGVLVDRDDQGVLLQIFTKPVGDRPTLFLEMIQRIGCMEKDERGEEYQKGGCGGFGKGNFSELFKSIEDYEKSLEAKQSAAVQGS
From the text: Herbicidal inhibitors of HPPD are found here to have generally low values of koff (in the range less than 0.0003 s^−1, often less than 0.000001 s^−1). It will be appreciated that many suitable methods known in the art for determining such low koff values are suitable for working the current invention. These include measuring rates of exchange of radio or otherwise labelled inhibitors either with or away from the enzyme inhibitor complex. For example enzyme inhibitor complexes can readily be prepared by incubating HPPD preparations with labelled or unlabelled inhibitor and then, after suitable periods, optionally rapidly separating the thus formed enzyme inhibitor complex from excess inhibitor by any suitable method such as ultrafiltration, binding to filters or exchange down a gel filtration column. Exchange reactions with the, thus prepared enzyme inhibitor complex is then initiated by addition of, as appropriate, excess labelled or unlabelled inhibitor. HPPD preparations suitable for use in the methods of the current invention are relatively unpurified, buffer-exchanged, supernatant fractions of spun crude lysates of E. coli strains engineered to express the HPPD enzyme of interest at a level of, typically, about 0.25-10% of the total soluble protein. Many methods such as radiometric, fluorimetric, NMR, fluorescence depolarisation, EPR, Mossbauer, UV/VIS spectrophotometry etc. or phonon resonance can, in principle, be used to monitor the enzyme/ligand exchange reactions and, particularly in this case where the enzyme contains an iron atom at the ligand binding site. Optionally, the monitoring method may be continuous (as, for example, with scintillation proximity/bead-based methods) or, discontinuous, based upon collection of data at various timepoints wherein samples are removed and the bound and unbound label components rapidly separated and quantitated.
as §1, with “reaction. It will be appreciated that within the scope of the current invention many methods of making the desired kinetic comparisons are possible without explicit or rigorous determination of off rates but, based upon the same underlying principle, will achieve the same selection result.” for “reaction.”
The dissociation rates (off rates) of inhibitors selected from Formula 1 and/or 2 and/or 3 and/or 4 from the complexes that they form with test and control HPPD enzymes are suitably measured in a number of ways. Thus, for example, the rates of dissociation of mesotrione, a compound selected from Formula 1 and of the diketonitrile of isoxaflutole, a compound selected from Formula 3 from their respective complexes with, test, wheat HPPD and with, control, Arabidopsis HPPD are compared. The method and results from a typical test are as follows.
^14C mesotrione is of specific activity 1.12 GBq/mmol. This is ˜95% pure radiochemically by TLC and based upon the proportion of material tight-binding to HPPD. Arabidopsis and, (test), wheat HPPD are each diluted to a concentration of ˜0.45 and 0.54 μM, respectively into 1.6 ml of 50 mM Bis-Tris propane buffer at pH 7.0 containing 25% glycerol, 25 mM sodium ascorbate and 3 mg/l of bovine catalase (Sigma C3155˜50,000 units/mg) containing […] ^14C mesotrione and left to react at 25 C for 2.5-3 h. Following this initial binding reaction, exchange reactions are initiated by addition of cold mesotrione to a final concentration of 60 μM and 200 μl aliquots removed at various times to rapid chromatography down a NAP5 gel filtration column equilibrated in 50 mM BTP at pH 7 containing 0.1 M KCl, separation into fractions containing protein-bound or free radiolabel and liquid scintillation counting. […]

[3] = Kd, value obtained + glycerol (in parentheses)
[4] = Kd, without glycerol, Kd = koff/kon
[5] = dissociation constant (Kd), in water at pH 7.0 and at 25 C

Row | SMILES | Kd [1, 3] [nM] | Kd [1, 4] [nM] | Kd [2, 3] [nM] | Kd [2, 4] [nM] | Kd [2, 5] [nM] | Kd [1] [nM] | ratio Kd2/Kd4, structure II to structure VII [1] | ratio koff2/koff4, structure II to structure VII [1] | koff ([1]; without 25% v/v glycerol, exchange with 14C mesotrione) [s⁻¹] | koff ([1]; − glycerol) [s⁻¹] | ratio Kd2/Kd4, structure II to structure VII [2] | ratio koff2/koff4, structure II to structure VII [2] | koff ([2]; in water at pH 7.0 and at 25 C, values of Table 3 restated) [s⁻¹] | koff ([2]; pH 7, in water at pH 7.0 and at 25 C, values of Table 3 restated) [s⁻¹] | koff ([2]; − glycerol)
1 | CS(=O)(=O)c1ccc(C(=O)C2C(=O)CCCC2=O)c([N+](=O)[O-])c1 [Structure I, 2-(Nitro-4-methanesulphonylbenzoyl)-cyclohexane-1,3-dione, reference compound] | 0.021 | 0.014 | 6.33 | 7.41 | 6.5 to 7.5 |  |  |  |  |  |  |  |  |  | 
2 | Cc1nc(C(F)(F)F)ccc1C(=O)C1C(=O)C2CCC(C2)C1=O (centres unmarked) [Structure II] |  |  |  | 6.73 | 6.5 to 7.5 | 0.11 | 3.4 | 11 and 8.6 | ~1.16e-05 | 1.16e-05 | 38 | 30 and 42 | 0.00035 | 0.00025 | 0.00025 s⁻¹ and 0.00035 s⁻¹
